{
  "source": "patent US7863335B2",
  "about": "“Non-antibiotic intervention of chlamydial infection” (The University of Medicine and Dentistry of New Jersey, priority 2004, dated 2011)",
  "key": {"L2 [1]": {"tested_on": "L2", "assay": "Dot blot analysis of MOMP, L2 growth in HeLa cells", "assay_type": "cell-based, Chlamydia trachomatis"}, "HeLa cells [2]": {"tested_on": "HeLa cells", "assay": "Cytotoxicity judged by cellular morphology of HeLa cells", "assay_type": "cell-based, Human"}, "HeLa cells [3]": {"tested_on": "HeLa cells", "assay": "DNA synthesis ([methyl-3H]thymidine incorporation) in HeLa cells", "assay_type": "cell-based, Human", "protocol": "(§1) The lack of cytotoxic activity in GM6001 was further supported by measuring DNA synthesis. Subconfluent cells grown in 24 well plates were fed with medium (0.5 ml/well) containing indicated concentrations of GM6001 for 40 hours. 2 μl of [methyl-3H]thymidine (specific activity: 20 Ci/mmole, Moravek Biochemical, Brea, Calif.) was added into the culture and incubated for 2 hours. The amount of thymidine incorporated into DNA was determined as we previously described (3)."}, "L2 [4]": {"tested_on": "L2", "assay": "Pretreatment of host HeLa cells or EBs with GM6001, immunostaining of L2 growth", "assay_type": "cell-based, Chlamydia trachomatis", "protocol": "To address whether suppression of chlamydial growth resulted from inhibition of host or bacterial enzymes, we determined the effect of pretreatment of EB and host cells with a hydroxamate on chlamydial growth. HeLa cells were cultured for 2 h with medium containing 20 °μM GM6001 and washed 3 times with medium before they were infected with a regular EB stock. Likewise, an EB stock was also incubated with GM6001, washed, and added to untreated HeLa cells. As control, GM6001 (final concentration: 20 μM) was added into and maintained in the culture medium after the attachment/entry period."}, "[5]": {"tested_on": "Salmonella Enterica Serovar Typhimurium", "assay": "Intracellular growth of S. enterica in HeLa cells (colony-forming units)", "assay_type": "cell-based", "settings": "20 μM, 1.5 and 6 h, 50 μg/ml gentamycin", "method": "To assess whether its intracellular growth is affected by the inhibitor, HeLa cells were infected with a fresh culture of S. enterica grown to stationary phase as previously described (16). After washes to remove free bacteria, the cells were cultured with medium containing 50 μg/ml gentamycin (to kill any residual free bacteria) plus or minus 20 μM GM6001 for 1.5 and 6 h. Gentamycin was then removed by washes. Intracellular bacteria were released by 0.1% Triton X-100, serially diluted and plated onto LB agar plates. After overnight incubation at 37° C., colony-forming units were scored."}, "[6]": {"tested_on": "L. delbrueckii (ATCC 12315)", "assay": "Growth of L. delbrueckii in liquid culture (OD600)", "assay_type": "cell-based, Lactobacillus delbrueckii", "settings": "20 μM, hourly up to 5 h postinoculation", "protocol": "(§2) An E. coli MG1655 colony was inoculated into 10 ml LB broth, which was then divided into 2 ml aliquots. After overnight culture, OD600 measurements were taken. An overnight L. delbrueckii (ATCC 12315) culture was diluted 1:100, and cultured in the presence or absence of 20 μM of GM 6001. OD600 values were measured hourly up to 5 h postinoculation."}, "L2 (biovar LGV) [7]": {"tested_on": "L2 (biovar LGV)", "assay": "Dot blot analysis of MOMP, L2 growth in A549 cells", "assay_type": "cell-based, Chlamydia trachomatis", "settings": "40 hours after infection, 1 μg/ml cycloheximide", "protocol": "Infection of A549 cells and inhibitor treatment were carried out as described above. 40 hours after infection, cells were lysed in 200 μl of H2O, a 50 μl sample of the resulting EB/RB extract was blotted onto Zeta Probe membrane (Bio-Rad), and sequentially reacted with the L2 MOMP antibody described above, and horseradish peroxidase-conjugated rabbit anti-mouse IgG."}, "MoPn (biovar mouse)": {"tested_on": "MoPn (biovar mouse)", "assay": "Chlamydial DNA synthesis of MoPn (biovar mouse)", "assay_type": "cell-based, Chlamydia trachomatis", "settings": "dose response", "protocol": "We next tested whether GM6001 was also effective against the remaining two biovars of C. trachomatis. […] The effect of GM6001 on biovar mouse was determined by measuring chlamydial DNA synthesis with procedures that we previously detailed (1, 3)."}, "[8]": {"tested_on": "Salmonella Enterica Serovar Typhimurium", "assay": "Growth of S. enterica as free-living organism in liquid medium (OD600)", "assay_type": "cell-based"}, "Chlamydia": {"tested_on": "Chlamydia", "assay": "Titration of infectious EBs produced by infected HeLa cells", "assay_type": "cell-based, Chlamydia trachomatis", "protocol": "Inhibition of chlamydial growth was obtained when GM6001 and TAPI-0 was added to cultures at the end of the two hour attachment/entry period (FIGS. 1-3), a point where free unbound EBs had been removed by extensive washes. The entry-independent inhibition was also seen by titrating infectious EBs produced by infected HeLa cells (FIG. 6). […] At this point, EBs have already completed the entry phase and have differentiated into RBs in inclusions. Even when GM6001 treatment was started 24 h after infection, a point where the number of RBs peaks during the chlamydial developmental cycle, a 99% reduction in EB production was observed (FIG. 6)."}, "L2 (biovar LGV) [9]": {"tested_on": "L2 (biovar LGV)", "assay": "Live images (light microscope) of inclusion formation in L2-infected HeLa cells", "assay_type": "cell-based, Chlamydia trachomatis", "settings": "in both the presence and absence of cycloheximide", "from_the_text": "The inhibition of L2 growth by GM6001 could be viewed directly under a light microscope without immunostaining. Shown in FIG. 1C are images obtained from live cultures."}, "[10]": {"tested_on": "strain 434/bu of serovar L2 (L2, biovar LGV)", "assay": "MOMP immunofluorescence of inclusion formation in L2-infected HeLa cells", "assay_type": "cell-based, Chlamydia trachomatis", "protocol": "Human cervical carcinoma HeLa cells grown on coverslips were exposed to an EB stock of strain 434/bu of serovar L2 (L2, biovar LGV) for 2 hours, washed to remove free EBs, and cultured in medium containing indicated concentrations of GM6001 plus 1 μg/ml cycloheximide, an inhibitor of eukaryotic protein synthesis which is commonly used to facilitate chlamydial growth. 40 hours later, cells were fixed with methanol, and reacted for 1 hour with a monoclonal antibody against the major outer membrane protein (MOMP) of L2. After three washes with PBS, coverslips were reacted with fluorescein isothiocyanate-conjugated goat anti-mouse IgG (Sigma, St. Louis, Mo.) for 30 min. After additional washes, coverslips were mounted onto glass slides and viewed with a Nikon Eclypse E1000 fluorescent microscope."}, "A549 cells": {"tested_on": "A549 cells", "assay": "DNA synthesis ([methyl-3H]thymidine incorporation) in A549 cells", "assay_type": "cell-based, Human", "protocol": "as §1"}, "[11]": {"tested_on": "strain UW-3/Cx of serovar D (biovar trachomatis)", "assay": "Chlamydial lipopolysacharide immunostaining of inclusion formation, serovar D in HeLa cells", "assay_type": "cell-based, Chlamydia trachomatis"}, "E. coli MG1655": {"tested_on": "E. coli MG1655", "assay": "Growth of E. coli in LB broth (OD600)", "assay_type": "cell-based, Escherichia coli", "settings": "overnight culture, concentrations indicated in FIG. 4A", "protocol": "as §2"}},
  "note": "Where two headings read alike, the source gives them in different places.",
  "data": [
    {"smiles": "CNC(=O)[C@H](Cc1c[nH]c2ccccc12)NC(=O)[C@H](CC(C)C)NC(=O)OC(C)(C)C", "note": "[GM6001 Negative Control, N-t-butoxycarbonyl-L-leucyl-L-tryptophan methylamide]", "values": [
      {"measurement": "chlamydial (L2) growth, MOMP dot blot", "setting": "L2 [1]", "value": "no detectable effect"},
      {"measurement": "adverse effect on morphology of HeLa cells", "setting": "HeLa cells [2]; data not shown", "value": "no adverse effect"},
      {"measurement": "DNA synthesis (thymidine incorporated into DNA)", "setting": "HeLa cells [3]", "value": "no adverse effect"}
    ]},
    {"smiles": "CNC(=O)[C@H](Cc1c[nH]c2ccccc12)NC(=O)[C@@H](CC(=O)NO)CC(C)C", "note": "[GM6001]", "values": [
      {"measurement": "chlamydial infection after pretreatment of EB stock", "setting": "L2 [4]; EB stock incubated with GM6001, washed, added to untreated HeLa cells", "value": "completely ineffective"},
      {"measurement": "chlamydial infection after pretreatment of host HeLa cells", "setting": "L2 [4]; HeLa cells cultured 2 h with 20 μM GM6001, washed 3 times before infection", "value": "completely ineffective"},
      {"measurement": "growth of S. enterica inside HeLa cells (colony-forming units)", "setting": "[5]", "value": "did not inhibit"},
      {"measurement": "chlamydial (L2) growth, MOMP dot blot", "setting": "L2 [1]", "value": "no MOMP signals"},
      {"measurement": "cytotoxic effects based on morphology", "setting": "HeLa cells [2]; uninfected or L2-infected HeLa cells", "value": "no apparent cytotoxic effects"},
      {"measurement": "growth of Lactobacillus delbrueckii (OD600)", "setting": "[6]", "value": "did not show any effects"},
      {"measurement": "MOMP signal (L2 growth)", "setting": "L2 (biovar LGV) [7]", "value": "no signal was detected"},
      {"measurement": "inhibition of MoPn growth (chlamydial DNA synthesis)", "setting": "MoPn (biovar mouse)", "value": "dose-response curve of GM6001 inhibition of MoPn growth was obtained"},
      {"measurement": "growth of S. enterica in liquid medium", "setting": "[8]", "value": "had no effect"},
      {"measurement": "inhibition at 20 µM", "setting": "Chlamydia; Chlamydia, HeLa, 20 μM, added at the end of attachment/entry period, read-out: inhibition of EB production", "value": "> 100", "unit": "%"},
      {"measurement": "inhibition of EB production", "setting": "Chlamydia; added 8 h after infection", "value": "comparable inhibitory activity"},
      {"measurement": "reduction in EB production", "setting": "Chlamydia; treatment started 24 h after infection", "value": 99, "unit": "%"},
      {"measurement": "inhibition of L2 growth / inclusion formation in live cultures", "setting": "L2 (biovar LGV) [9]", "value": "effective against chlamydial infection"},
      {"measurement": "number of inclusions (L2 inclusion formation)", "setting": "[10]; increasing concentrations of GM6001 plus 1 μg/ml cycloheximide, 40 hours", "value": "number of inclusions declined progressively"},
      {"measurement": "DNA synthesis (thymidine incorporated into DNA)", "setting": "A549 cells", "value": "did not exhibit any inhibitory effect"},
      {"measurement": "effect on cycloheximide-induced inhibition of DNA synthesis", "setting": "A549 cells", "value": "no synergistic or additive effect"},
      {"measurement": "DNA synthesis (thymidine incorporated into DNA)", "setting": "HeLa cells [3]", "value": "did not exhibit any inhibitory effect"},
      {"measurement": "effect on cycloheximide-induced inhibition of DNA synthesis", "setting": "HeLa cells [3]", "value": "no synergistic or additive effect"},
      {"measurement": "inclusion formation by serovar D", "setting": "[11]", "value": "efficiently suppressed inclusion formation"}
    ]},
    {"smiles": "CC(C)C[C@H](CC(=O)NO)C(=O)N[C@@H](Cc1ccc2ccccc2c1)C(=O)N[C@@H](C)C(N)=O", "note": "[TAPI-0, N-(R)-[2-(Hydroxyaminocarbonyl)methyl]-4-methylpentanoyl-L-naphthylalanyl-L-alanine amide]", "values": [
      {"measurement": "growth of E. coli (OD600)", "setting": "E. coli MG1655", "value": "did not show any effects"},
      {"measurement": "inhibition of L2 infection (MOMP immunofluorescence)", "setting": "[10]; at both 7.5 and 15 μM", "value": "strongly inhibited"}
    ]},
    {"smiles": "C[C@@H]1C[C@@H]([C@H](O)CC2CC(=O)NC(=O)C2)C(=O)[C@@H](C)C1", "note": "[cycloheximide]", "values": [
      {"measurement": "DNA synthesis (thymidine incorporated into DNA)", "setting": "A549 cells; uninfected A549 cells, 40 hours treatment", "value": "effectively inhibited DNA synthesis activity"},
      {"measurement": "DNA synthesis (thymidine incorporated into DNA)", "setting": "HeLa cells [3]; uninfected HeLa cells, 40 hours treatment", "value": "effectively inhibited DNA synthesis activity"}
    ]}
  ]
}
